Source: PMC11413854, “Reversible Control of Native GluN2B-Containing NMDA Receptors with Visible Light” (ACS Chemical Neuroscience, 2024)
Where “and” joins values, the source holds several entries; their conditions need not be identical. Equal values may be shown once.

Tested on: Xenopus laevis tadpoles
Test: Behavioral test: locomotion of free-swimming tadpoles under light cycles
Type: in vivo
Details: for reduction in locomotor activity in the dark vs baseline / Normalized travelled distance by tadpoles (/baseline/control), mean: 5 µM; for reduction in locomotor activity in the dark vs baseline: 45 min incubation; for Normalized travelled distance by tadpoles (/baseline): per well (mean of 3 tadpoles)
Method: In our behavioral assay, tadpoles were placed in groups of three animals per well of a 12-well plate allowing them to swim freely. Their baseline locomotion was recorded for 3 min in the dark, after which they were incubated for 45 min in a solution containing either 0.1% DMSO (control) or 5 μM OptoNAM-3 (refer to Methods and Figure S5A for details). For each condition (control and OptoNAM-3), tadpole locomotion was recorded for 3 min in the dark, followed by cycles of 1 min illumination at 365 nm and then 550 nm, and interspersed with 3 min rest periods to avoid bias due to a poststimulation refractory period[51],[56] (Figure S5A). We also conducted the same protocol using 460/550 nm light cycles, as OptoNAM-3 can switch from the trans to cis state upon exposure to blue light at 460 nm when pre-equilibrated on cells (see above). The tadpole traveled distance was calculated from precise position coordinates of tadpole body parts across frames, assessed by automatic position multianimal tracking using the open-source program DeepLabCut.[57],[58]Xenopus laevis tadpoles present nonvisual photoreceptors that generate a photomotor response characterized by an increase of activity upon UV light illumination.[59] We indeed observed an increase in tadpole locomotion with UV and blue light compared to 550 nm light in the control condition (∼1.5-fold, Figures 6A,B and S5B,C, gray points). The photodependent effect of OptoNAM-3 on locomotion was therefore quantified by calculating the traveled distance normalized twice: by the tadpole baseline locomotion (to decrease interindividual variability linked to the locomotion speed) and, for each condition, by the locomotion of the control group (to remove the nonspecific effect of UV or blue light). […] Their locomotion could be restored to baseline activity with UV or blue light and inhibited again by 550 nm light for two cycles (Figure 6C,D and Movies S1 and S2). Consequently, OptoNAM-3 enabled fast and reversible control of tadpole locomotion using light. In addition, the compound red-shifted properties observed in vitro were conserved in vivo. OptoNAM-3 therefore holds great promise to photocontrol native GluN2B-NMDARs with the high biocompatibility of red-shifted photoswitches.[29],[31]
Xenopus laevis embryos were obtained from the European Xenopus Resource Centre (EXRC, Portsmouth, UK) or TEFOR Paris Sackay (Saclay, France), maintained in Modified Barth’s Saline (MBS) 0.1× (pH adjusted to 7.8 with NaOH), and supplemented with 10 μg/mL of gentamicin, in 10 cm Petri dishes with a maximum of 50 tadpoles per dish. The embryos were stored at 18 °C until they reached stage 49 (12–14 days postfertilization).[86] Experiments on Xenopus tadpoles were performed according to European Union guidelines (project authorization Apafis #44976–2023092616413977)
For the experiments (see Figure S5A), stage 49 X. laevis tadpoles were placed in the center of a 12-well plate at a density of three animals per well in 0.1× MBS. The 12-well plate was covered with a 3D-printed dome equipped with a liquid guide (15 cm) connected to a multichannel LED delivery system (CoolLed pE-4000) at the top. The plate was positioned on optical cast plastic infrared filters, which allowed only wavelengths above 650 nm to pass, and red light (770 nm at 15% intensity) was continuously applied during recording to enable video recording in the dark. […] Subsequently, the tadpoles were incubated in the dark for 30 min in a 60 × 15 mm Petri dish containing 5 mL of either the vehicle (0.1% DMSO in MBS 0.1×) or OptoNAM-3 solution (5 μM in MBS 0.1×) to facilitate drug penetration. Afterward, the tadpoles were transferred back to the 12-well plate, which contained either the vehicle solution or OptoNAM-3 (5 μM), and habituation to red light was performed again for 15 min. […]

[1] = Sup. Fig. 5B, UV/green cycles, second data block (c27-c50), raw

c1ccc(/N=N/c2ccc(CCNc3ccncc3)cc2)cc1 [OptoNAM-3, (E)-N-(4-(Phenyldiazenyl)phenethyl)pyridin-4-amine]
reduction in locomotor activity in the dark vs baseline (UV/visible cycle protocol group): 35%
reduction in locomotor activity in the dark vs baseline (blue/green cycle protocol group): 50%
Normalized travelled distance by tadpoles (/baseline/control), mean (Fig 6C, 365 nm (1), UV/green light cycle experiment): 1.089
Normalized travelled distance by tadpoles (/baseline/control), mean (Fig 6C, 365 nm (2), UV/green light cycle experiment): 0.883
Normalized travelled distance by tadpoles (/baseline/control), mean (Fig 6C, 550 nm (1), UV/green light cycle experiment): 0.484
Normalized travelled distance by tadpoles (/baseline/control), mean (Fig 6C, 550 nm (2), UV/green light cycle experiment): 0.221
Normalized travelled distance by tadpoles (/baseline/control), mean (Fig 6C, dark, UV/green light cycle experiment): 0.649
Normalized travelled distance by tadpoles (/baseline/control), mean (Fig 6D, 460 nm (1), blue/green light cycle experiment): 2.548
Normalized travelled distance by tadpoles (/baseline/control), mean (Fig 6D, 460 nm (2), blue/green light cycle experiment): 2.278
Normalized travelled distance by tadpoles (/baseline/control), mean (Fig 6D, 550 nm (1), blue/green light cycle experiment): 0.587
Normalized travelled distance by tadpoles (/baseline/control), mean (Fig 6D, 550 nm (2), blue/green light cycle experiment): 0.462
Normalized travelled distance by tadpoles (/baseline/control), mean (Fig 6D, dark, blue/green light cycle experiment): 0.509
Distance in mm, well mean of 3 tadpoles, uv 1 min (Sup. Fig. 5B, UV/green cycles, first data block (c1-c24), raw): 543.756 mm and 730.486 mm and 588.764 mm and 724.010 mm and 734.699 mm and 651.720 mm and 525.360 mm and 469.552 mm
Distance in mm, well mean of 3 tadpoles, green2 1 min [1]: 28.734 mm and 47.149 mm and 41.068 mm and 52.900 mm and 46.164 mm and 30.050 mm and 28.925 mm and 43.119 mm
Distance in mm, well mean of 3 tadpoles, uv 1 min [1]: 636.734 mm and 582.355 mm and 684.728 mm and 679.263 mm and 728.479 mm and 513.366 mm and 700.914 mm and 476.462 mm
Normalized travelled distance by tadpoles (/baseline), single well (Sup. Fig. 5B, 365 nm (1), individual wells): 1.393 and 3.082 and 2.491 and 2.557 and 3.849 and 6.596 and 1.808 and 1.431 and 6.280 and 5.411 and 9.003 and 6.422 and 6.492
Normalized travelled distance by tadpoles (/baseline), mean (Sup. Fig. 5B, 365 nm (1), mean of 16 wells): 4.878
Normalized travelled distance by tadpoles (/baseline), single well (Sup. Fig. 5B, 365 nm (2), individual wells): 1.002 and 2.077 and 1.181 and 1.514 and 2.542 and 5.415 and 1.765 and 1.460 and 5.497 and 4.718 and 10.726 and 5.196 and 4.515
Normalized travelled distance by tadpoles (/baseline), mean (Sup. Fig. 5B, 365 nm (2), mean of 16 wells): 4.635
Normalized travelled distance by tadpoles (/baseline), single well (Sup. Fig. 5B, 550 nm (1), individual wells): 0.458 and 1.858 and 0.896 and 0.456 and 0.161 and 0.143 and 0.389 and 0.051 and 0.457 and 0.356 and 0.468 and 0.574 and 0.522
Normalized travelled distance by tadpoles (/baseline), mean (Sup. Fig. 5B, 550 nm (1), mean of 16 wells): 0.561
Normalized travelled distance by tadpoles (/baseline), single well (Sup. Fig. 5B, 550 nm (2), individual wells): 0.073 and 0.057 and 0.075 and 0.047 and 0.119 and 0.187 and 0.194 and 0.072 and 0.283 and 0.438 and 0.540 and 0.500 and 0.411
Normalized travelled distance by tadpoles (/baseline), mean (Sup. Fig. 5B, 550 nm (2), mean of 16 wells): 0.274
Normalized travelled distance by tadpoles (/baseline), single well (Sup. Fig. 5B, dark, individual wells (each well is the mean of 3 tadpole)): 0.095 and 0.145 and 0.255 and 0.231 and 0.246 and 0.190 and 0.129 and 0.073 and 0.384 and 0.405 and 0.424 and 0.476 and 0.614
Normalized travelled distance by tadpoles (/baseline), mean (Sup. Fig. 5B, dark, mean of 16 wells (each well is the mean of 3 tadpole)): 0.393
Normalized travelled distance by tadpoles (/baseline) (Sup. Fig. 5B, dark): 0.643 and 0.955 and 1.031
Normalized travelled distance by tadpoles (/baeline/control), single well (Sup. Fig. 5C, 460 nm (1), individual wells): 1.914 and 1.376 and 8.550 and 2.480 and 4.315 and 7.810 and 5.706 and 5.046 and 11.224 and 1.065 and 13.799 and 8.327 and 1.491
Normalized travelled distance by tadpoles (/baeline/control), mean (Sup. Fig. 5C, 460 nm (1), mean of 17 wells): 6.279
Normalized travelled distance by tadpoles (/baeline/control), single well (Sup. Fig. 5C, 460 nm (2), individual wells): 2.036 and 1.506 and 10.137 and 2.268 and 4.306 and 11.041 and 6.016 and 15.287 and 9.339 and 1.297 and 11.889 and 4.687 and 3.893
Normalized travelled distance by tadpoles (/baeline/control), mean (Sup. Fig. 5C, 460 nm (2), mean of 17 wells): 6.476
Normalized travelled distance by tadpoles (/baseline) (Sup. Fig. 5C, 460 nm (2)): 8.083 and 4.823 and 6.568 and 6.920
Normalized travelled distance by tadpoles (/baeline/control), single well (Sup. Fig. 5C, 550 nm (1), individual wells): 0.384 and 0.350 and 1.155 and 0.578 and 0.301 and 1.159 and 2.310 and 0.844 and 0.446 and 0.287 and 2.947 and 0.796 and 0.259
Normalized travelled distance by tadpoles (/baeline/control), mean (Sup. Fig. 5C, 550 nm (1), mean of 17 wells): 0.899
Normalized travelled distance by tadpoles (/baeline/control), single well (Sup. Fig. 5C, 550 nm (2), individual wells): 0.201 and 0.140 and 0.631 and 0.384 and 0.385 and 0.939 and 0.448 and 0.727 and 1.019 and 0.143 and 0.892 and 1.756 and 0.609
Normalized travelled distance by tadpoles (/baeline/control), mean (Sup. Fig. 5C, 550 nm (2), mean of 17 wells): 0.702
Normalized travelled distance by tadpoles (/baseline) (Sup. Fig. 5C, 550 nm (2)): 1.231 and 0.815 and 0.780 and 0.842
Normalized travelled distance by tadpoles (/baeline/control), single well (Sup. Fig. 5C, dark, individual wells (each well is the mean of 3 tadpole)): 0.118 and 0.080 and 0.825 and 0.228 and 0.352 and 1.330 and 0.587 and 0.877 and 0.773 and 0.144 and 0.553 and 0.717 and 0.589
Normalized travelled distance by tadpoles (/baeline/control), mean (Sup. Fig. 5C, dark, mean of 17 wells (each well is the mean of 3 tadpole)): 0.520
Normalized travelled distance by tadpoles (/baseline) (Sup. Fig. 5C, dark): 0.453 and 0.357 and 0.524 and 0.331
